The text below walks through data of patent US12472166B2, “Inhibition of mycobacterial type VII secretion” (priority 2019, dated 2025).

Structures are written as SMILES.

Assay [1] deals with M. tuberculosis overexpressing ethA. Format: cell-based.
Assay [2] concerns resistant M. tuberculosis strains. Format: cell-based.

Take `O=C(CSc1nc(-c2ccccc2)no1)NC1CCCC1` [Compound I-28]: in assay [1], the “activity in the ethA overexpression strain compared to WT M. tuberculosis” value is “increased activity in the ethA overexpression strain”. Still for that read-out and setting: for `O=C(CSc1nc(-c2ccccc2)no1)NC1CCCC1` [Compound I-31] the value was “did not show an increased activity”. Turning to `COc1ccc(-c2nsc(SCC(=O)NC3CCCC3)n2)cc1` [Compound I-12], in assay [2], the “concentration in presence of which resistant strains were grown” value turned out to be 80 µM and the “increase compared to the susceptible WT strain” value was 64 fold. The “increased susceptibility as compared to the parent WT strain” value in assay [1] is reported as “at least 4 fold”.
